Key:
Influenza B virus = test: Inhibitory activity against sialidase of influenza B; type: functional, organism-based
Influenza A virus = test: Inhibitory activity against sialidase of influenza A; type: functional, organism-based

Work on `CCC(CC)O[C@@H]1OC(C(=O)O)=C[C@H](N)[C@H]1NC(C)=O` yielded an IC50 (Influenza B virus) of 42000 nM and an IC50 (Influenza A virus) of 770 nM.
`CCC(CC)C(O)[C@@H]1OC(C(=O)O)=C[C@H](N)[C@H]1NC(C)=O` (some centres not stated) showed an IC50 (Influenza B virus) of 7400 nM and an IC50 (Influenza A virus) of 39 nM.
Work on `CC(=O)N[C@H]1[C@H]([C@H](O)[C@H](O)CO)OC(C(=O)O)=C[C@@H]1NC(=N)N` [ZANAMIVIR] yielded an IC50 (Influenza B virus) of 4 nM and an IC50 (Influenza A virus) of 5 nM.
With `CCC(CC)C(=O)[C@@H]1OC(C(=O)O)=C[C@H](N)[C@H]1NC(C)=O` the IC50 (Influenza B virus) was 470 nM and the IC50 (Influenza A virus) was 2 nM.
With `CCC(CC)O[C@@H]1C=C(C(=O)O)C[C@H](N)[C@H]1NC(C)=O` [OSELTAMIVIR CARBOXYLATE] the IC50 (Influenza B virus) was 32 nM and the IC50 (Influenza A virus) was 2 nM.
Work on `CCN(CC)C(=O)[C@@H]1OC(C(=O)O)=C[C@H](N)[C@H]1NC(C)=O` yielded an IC50 (Influenza B virus) of 360 nM and an IC50 (Influenza A virus) of 3 nM.
